Where two headings read alike, the source gives them in different places.
Legend:
[1] = system: Plasmodium berghei NK 65 strain; assay: animal or person; format: in vivo; conditions: for Survival days (mean survival days, treatment group minus control group) / Recovery Rate (suppression): 4 days; for Recovery Rate (suppression): P. berghei infected ICR mice
[2] = system: Trypanosoma cruzi (Tulahuen C2C4 strain); assay: American trypanosoma protozoa proliferation inhibition screening test; format: cell-based; conditions: for Selective toxicity: EC50 rat L6 cells / EC50 American trypanosoma protozoa; for EC50: Trypanosoma cruzi, read-out: EC50 Trypanosoma cruzi
Protocol: In this experiment, amastigote and trypomastigote of Trypanosoma cruzi (Tulahuen C2C4 strain) infected to rat L6 cells were used. The medium used in the experiment was prepared as follows: to RPMI 1640 medium containing L6 cells, L-glutamine (200 mM) and fetal bovine serum was added to achieve concentration of 1% and 10%, respectively. The culture was conducted under CO2 concentration 5% and temperature 37° C.
Either the compound of the invention or a positive control (benznidazole) was dissolved into DMSO to prepare test solution having predefined concentration. To each well in a 96-well culture plate, medium containing 5×10^3 protozoa was added and precultured for 48 hours. After replacing the medium, either the test solution containing compound of the invention in predefined concentration or DMSO without compound was added. The test solution was duplicated.
The plate was cultured in an incubator for 96 hours, and the proliferation inhibition activity was examined. The activity was determined as follows. To each well, 50 μL CPRG/Nonidet was added, then left for 2 to 6 hours. Then the culture plate was mounted on an absorption microplate reader to determine absorption at 540 nm. The trypanosoma infection rate of the sample containing the test compound and that of the control sample was calculated.
Using the protozoa infection rate thus obtained, the proliferation inhibition rate was calculated according to the following equation to determine 50% proliferation inhibition concentration (EC50).
Proliferation inhibition rate(%)={1−(b−a)/(c−a)}×100
a: initial infection rate b: infection rate of the test compound solution c: infection rate of the control

[3] = system: Rat-derived L6 cells (rat skeletal myoblast cell); assay: Rat L6 cell proliferation inhibition test; format: cell-based; conditions: Alamar Blue
[4] = Plasmodium berghei, ip, 96 h, read-out: Recovery Rate (suppression)
[5] = dose 25 mg/kg/d intraperitoneally
[6] = Tulahuen C2C4 strain in rat L6 cells, 96 hours, CPRG/Nonidet

SMILES | inhibition in vivo at 10 mg/kg/day [1, 4] [%] | inhibition in vivo at 25 mg/kg/day [1, 4] [%] | Survival days (mean survival days, treatment group minus control group) [1, 5] [days] | Selective toxicity [2] | EC50 [2, 6] [µg/mL] | EC50 cytotoxicity L6 ([3]; Table 1, 72 hours) [µg/mL] | EC50 cytotoxicity L6 ([3]; Table 2, 72 hours) [µg/mL] | EC50 cytotoxicity L6 ([3]; Table 3, 72 hours) [µg/mL] | EC50 cytotoxicity L6 ([3]; Table 4, 72 hours) [µg/mL] | EC50 Trypanosoma cruzi [2, 6] [µg/mL] | Recovery Rate (suppression) [1, 5] [%] | other results
CCN1C(=O)/C(=C2\Sc3ccccc3N2C)S/C1=N\c1sc2cc(Cl)ccc2[n+]1C [Compound A-1] | 54.1 | 62.7 | 2.0 |  |  |  |  |  |  |  |  | 
CCN1C(=O)/C(=C2\C=Cc3ccccc3N2C)S/C1=N\c1sc2cc(Cl)ccc2[n+]1C [Compound A-2] | 54.6 |  |  | 18 | 0.31 |  |  |  |  |  |  | 
CCN1C(=O)/C(=c2/s/c(=C3/C=CC=CN3C)c(=O)n2CC)S/C1=N\c1sc2cc(Cl)ccc2[n+]1C [Compound B-2] | 79.8 | 97.1 | 19.3 |  |  |  |  |  |  |  |  | inhibition in vivo at 20 mg/kg/day [1, 4]: 97.4%; inhibition in vivo at 40 mg/kg/day [1, 4]: 99.1%
CCN1C(=O)/C(=c2/s/c(=C3/SCCN3C)c(=O)n2CC)S/C1=N\c1sc2cc(Cl)ccc2[n+]1C [Compound B-12] |  | 88.4 |  | 7 | 0.98 |  |  |  |  |  |  | 
CCN1C(=O)/C(=c2/s/c(=C3/C=CC=CN3C)c(=O)n2CC)S/C1=N\c1sc2cc(OC)ccc2[n+]1C [Compound B-28] |  |  |  |  |  | 5.01 | 5.01 | 5.01 | 5.01 | 0.314 | 98.3 | 
CCN1C(=O)/C(=c2/s/c(=C3/SCCN3C)c(=O)n2CC)S/C1=N\c1sc2cc(OC)ccc2[n+]1C [Compound B-29] |  |  |  |  |  | 1.98 | 1.98 | 1.98 | 1.98 | 0.091 | 95.0 | 
CCN1C(=O)/C(=c2/s/c(=C3/C=CC=CN3C)c(=O)n2CC)S/C1=N\c1sc2ccccc2[n+]1C [Compound B-30] |  |  | 16.0 |  |  | 7.46 | 7.46 | 7.46 | 7.46 | 0.74 | 96.4 | Recovery Rate (suppression) ([1]; dose 10 mg/kg/d intraperitoneally): 70.8%; Recovery Rate (suppression) ([1]; dose 20 mg/kg/d intraperitoneally): 92.4%; Recovery Rate (suppression) ([1]; dose 40 mg/kg/d intraperitoneally): 97.8%
CCN1C(=O)/C(=c2/s/c(=C3/SCCN3C)c(=O)n2CC)S/C1=N\c1sc2cc(F)ccc2[n+]1C [Compound B-33] |  |  | 8.7 |  |  | 9.83 | 9.83 | 9.83 | 9.83 | 0.66 | 70.5 | 
CCn1c(=O)/c(=C2\SCCN2C)s/c1=C1\S/C(=N\c2sc3cc(Cl)ccc3[n+]2C)N(C(C)C)C1=O [Compound B-37] |  | 94.5 |  | 3 | 0.479 |  |  |  |  |  |  | 
CN1/C(=c2\s/c(=C\c3cccc[n+]3CCC(=O)O)n(CC3CO3)c2=O)Sc2ccccc21 (stereo not shown) [Compound S-3, reference compound] |  |  |  |  |  |  | >90 | >90 | >90 |  |  | EC50 ([2]; TULAHUEN, L6, 96 h): > 30 µg/mL; inhibition in vivo at 5 mg/kg/day [1, 4]: 29.8%; Survival days (mean survival days, treatment group minus control group) ([1]; dose 5.0 mg/kg/d intraperitoneally): 0 days

— patent publication US20090076067A1, “PHARMACEUTICAL COMPOSITION COMPRISING AZARHODACYANINE COMPOUND AS ACTIVE INGREDIENT” (priority 2005, published 2009)
